Columns and labels:
Format in all cases: cell-based
Pseudomonas fluorescens [1] = assay: Checkerboard MIC Test in Tryptic Soy Broth; conditions: 28° C., 3 days; for Minimum Inhibitory Concentration, Compound Used Alone: checkerboard, PE methanesulfonate, Na+, 14,310 units/mg
Method: (§1) Determinations of minimum inhibitory concentrations (MIC's) of the two compounds (pyrithione salts and/or polymyxin sulfate) in a nutrient broth (alone and in mixtures) were conducted to evaluate interactions. Stock solutions of pyrithione salts and/or polymyxin salts were diluted in Tryptic Soy Broth (Difco), and the dilutions were inoculated with an equal volume of bacterial culture (10^6 /ml) or fungal spore suspension (10^5 /ml) in Tryptic Soy Broth and incubated at 28° C. for 3-7 days.
(§2) The interactions of the antimicrobials were determined according to accepted procedures (M. C. Berenbaum [Tables 1 and 2] and P. F. Dougherty "Microdilution Transfer Plate Technique for Determining In Vitro Synergy of Antimicrobial Agents", ANTIMICROBIAL AGENTS AND CHEMOTHERAPY, Vol. 11, No. 2, p. 225-228 (Feb. 1977, American Society for Microbiology) [Tables 3 and 4]). The concentration of each agent in the combination that inhibits the organisms is expressed as a fraction of the concentration that causes the same effect when the same agent is tested alone (i.e., its fractional inhibitory concentration, FIC). If the sum of the FIC's is 1, the combination is additive in its antimicrobial effect; if the sum is <1, the combination is synergistic; and if the sum is >1, the combination is antagonistic.
(§3) ^b Each dilution contained 10^6 bacteria/ml of 10^5 fungi/ml.

[2] = test system: Trichophyton mentagrophytes; assay: Checkerboard MIC Test in Tryptic Soy Broth; conditions: 28° C., 5 days; for Minimum Inhibitory Concentration, Compound Used Alone: checkerboard, PE methanesulfonate, Na+, 14,310 units/mg
Method: as §1, §2, §3

Candida albicans [3] = assay: Checkerboard MIC Test in Tryptic Soy Broth; conditions: 28° C., 5 days; for Minimum Inhibitory Concentration, Compound Used Alone: checkerboard, PE methanesulfonate, Na+, 14,310 units/mg
Method: as §1, §2, §3

Pseudomonas aeruginosa [4] = assay: Checkerboard MIC Test in Tryptic Soy Broth; conditions: 28° C., 3 days; for Minimum Inhibitory Concentration, Compound Used Alone: checkerboard, PE methanesulfonate, Na+, 14,310 units/mg
Method: as §1, §2, §3

Proteus mirabilis [5] = assay: Checkerboard MIC Test in Tryptic Soy Broth; conditions: 28° C., 3 days; for Minimum Inhibitory Concentration, Compound Used Alone: checkerboard, PE methanesulfonate, Na+, 14,310 units/mg
Method: as §1, §2, §3

Pseudomonas fluorescens [6] = assay: MIC in Tryptic Soy Broth, compounds alone and in mixtures; conditions: Table 1, 28° C., 3 days
Method: as §1, §2
(§4) ^a Compounds were serially diluted in Tryptic soy Broth (DIFCO),
as §3
(§5) ^a Stock solutions of ZP in dimethylsulfoxide and PB in sterile water

[7] = test system: Trichophyton mentagrophytes; assay: as above; conditions: Table 1, 28° C., 6-7 days
Method: as §1, §2, §4, §3, §5

Cephalosporium sp. = assay: as above; conditions: Table 1, 28° C., 6-7 days
Method: as §1, §2, §4, §3, §5

Aspergillus niger = assay: as above; conditions: Table 1, 28° C., 6-7 days
Method: as §1, §2, §4, §3, §5

Chaetomium globosium = assay: as above; conditions: Table 1, 28° C., 6-7 days
Method: as §1, §2, §4, §3, §5

Candida albicans [8] = assay: as above; conditions: Table 1, 28° C., 6-7 days
Method: as §1, §2, §4, §3, §5

Citrobacter freundii = assay: as above; conditions: Table 1, 28° C., 3 days
Method: as §1, §2, §4, §3, §5

Pseudomonas oleovorans = assay: as above; conditions: Table 1, 28° C., 3 days
Method: as §1, §2, §4, §3, §5

Alcaligens faecalis = assay: as above; conditions: Table 1, 28° C., 3 days
Method: as §1, §2, §4, §3, §5

Aureobasidium pullulans = assay: as above; conditions: Table 1, 28° C., 6-7 days
Method: as §1, §2, §4, §3, §5

Pseudomonas rubescens = assay: as above; conditions: Table 1, 28° C., 3 days
Method: as §1, §2, §4, §3, §5

Pseudomonas aeruginosa [9] = assay: as above; conditions: Table 1, 28° C., 3 days
Method: as §1, §2, §4, §3, §5

Pseudomonas Stutzeri = assay: as above; conditions: Table 1, 28° C., 3 days
Method: as §1, §2, §4, §3, §5

Gliocladium virens = assay: as above; conditions: Table 1, 28° C., 6-7 days
Method: as §1, §2, §4, §3, §5

Proteus mirabilis [10] = assay: as above; conditions: Table 1, 28° C., 3 days
Method: as §1, §2, §4, §3, §5

Penicillin pinophilium = assay: as above; conditions: Table 1, 28° C., 6-7 days
Method: as §1, §2, §4, §3, §5

Fusarium solani = assay: as above; conditions: Table 1, 28° C., 6-7 days
Method: as §1, §2, §4, §3, §5

[11] = Table 3, concentration of the component in SP+PE mixtures, SP/PE range ≤1/128-8
[12] = Table 3, concentration of the component in SP+PE mixtures, SP/PE range 1/2-8
[13] = Table 3, concentration of the component in SP+PE mixtures, SP/PE range 1/2048-1/4
[14] = Table 3, concentration of the component in SP+PE mixtures, SP/PE range 4-16
[15] = Table 3, concentration of the component in SP+PE mixtures, SP/PE range 1/16-4
[16] = alone, Tryptic Soy Broth, PB sulfate 7610 units/mg
[17] = concentration of the component in SP+PB mixture, SP/PB ratio 1
[18] = concentration of the component in SP+PB mixture, SP/PB ratio 1/20-1/10
[19] = concentration of the component in SP+PB mixture, SP/PB ratio 650

Polymyxin E methanesulfonate [PE]
Minimum Inhibitory Concentration, Compound Used Alone (Pseudomonas fluorescens [1]; Table 3): 256 ppm | Minimum Inhibitory Concentration, Mixture Range (Pseudomonas fluorescens [1]; [11]): 4-128 ppm | Minimum Inhibitory Concentration, Compound Used Alone (Pseudomonas fluorescens [1]; Table 4): 256 ppm | Minimum Inhibitory Concentration, Mixture Range (Pseudomonas fluorescens [1]; Table 4, concentration of the component in ZP+PE mixtures, ZP/PE range ≤1/128-4): 4-128 ppm | Minimum Inhibitory Concentration, Compound Used Alone ([2]; Table 3): 64 ppm | Minimum Inhibitory Concentration, Mixture Range [2, 12]: 4-32 ppm | Minimum Inhibitory Concentration, Compound Used Alone ([2]; Table 4): 64 ppm | Minimum Inhibitory Concentration, Mixture Range ([2]; Table 4, concentration of the component in ZP+PE mixtures, ZP/PE range 1/4-4): 4-32 ppm | Minimum Inhibitory Concentration, Compound Used Alone (Candida albicans [3]; Table 3): > 8200 ppm | Minimum Inhibitory Concentration, Mixture Range (Candida albicans [3]; [13]): 64-2048 ppm | Minimum Inhibitory Concentration, Compound Used Alone (Candida albicans [3]; Table 4): > 8200 ppm | Minimum Inhibitory Concentration, Mixture Range (Candida albicans [3]; Table 4, concentration of the component in ZP+PE mixtures, ZP/PE range 1/2048-1/4): 32-2048 ppm | Minimum Inhibitory Concentration, Compound Used Alone (Pseudomonas aeruginosa [4]; Table 3): 16 ppm | Minimum Inhibitory Concentration, Mixture Range (Pseudomonas aeruginosa [4]; [14]): 4-8 ppm | Minimum Inhibitory Concentration, Compound Used Alone (Pseudomonas aeruginosa [4]; Table 4): 16 ppm | Minimum Inhibitory Concentration, Mixture Range (Pseudomonas aeruginosa [4]; Table 4, concentration of the component in ZP+PE mixtures, ZP/PE range 2-8): 4-8 ppm | Minimum Inhibitory Concentration, Compound Used Alone (Proteus mirabilis [5]; Table 3): > 16,400 ppm | Minimum Inhibitory Concentration, Mixture Range (Proteus mirabilis [5]; [15]): 64-4096 ppm | Minimum Inhibitory Concentration, Compound Used Alone (Proteus mirabilis [5]; Table 4): > 16,400 ppm | Minimum Inhibitory Concentration, Mixture Range (Proteus mirabilis [5]; Table 4, concentration of the component in ZP+PE mixtures, ZP/PE range 1/1024): 4096 ppm

[Na+].[O-][n+]1ccccc1[S-] [SP, sodium pyrithione]
Minimum Inhibitory Concentration, Compound Used Alone (Pseudomonas fluorescens [6]; [16]): 135.5 ppm | Minimum Inhibitory Concentration, Mixture (Pseudomonas fluorescens [6]; concentration of the component in SP+PB mixture, SP/PB ratio 3-10): 6.7 ppm | Minimum Inhibitory Concentration, Compound Used Alone [7, 16]: 20.3 ppm | Minimum Inhibitory Concentration, Mixture ([7]; concentration of the component in SP+PB mixture, SP/PB ratio 1/10-1/3): 8.5 ppm | Minimum Inhibitory Concentration, Compound Used Alone (Cephalosporium sp.; [16]): 50.8 ppm | Minimum Inhibitory Concentration, Mixture (Cephalosporium sp.; [17]): 15.2 ppm | Minimum Inhibitory Concentration, Compound Used Alone (Aspergillus niger; [16]): 121.9 ppm | Minimum Inhibitory Concentration, Mixture (Aspergillus niger; concentration of the component in SP+PB mixture, SP/PB ratio 1/10): 40.6 ppm | Minimum Inhibitory Concentration, Compound Used Alone (Chaetomium globosium; [16]): 12.7 ppm | Minimum Inhibitory Concentration, Mixture (Chaetomium globosium; concentration of the component in SP+PB mixture, SP/PB ratio 1/10-1/5): 3.8 ppm | Minimum Inhibitory Concentration, Compound Used Alone (Candida albicans [8]; [16]): 33.9 ppm | Minimum Inhibitory Concentration, Mixture (Candida albicans [8]; [18]): 6.7 ppm | Minimum Inhibitory Concentration, Compound Used Alone (Citrobacter freundii; [16]): 12.7 ppm | Minimum Inhibitory Concentration, Mixture (Citrobacter freundii; concentration of the component in SP+PB mixture, SP/PB ratio 41-81): 6.7 ppm | Minimum Inhibitory Concentration, Compound Used Alone (Pseudomonas oleovorans; [16]): 12.7 ppm | Minimum Inhibitory Concentration, Mixture (Pseudomonas oleovorans; [19]): 3.2 ppm | Minimum Inhibitory Concentration, Compound Used Alone (Alcaligens faecalis; [16]): 30.5 ppm | Minimum Inhibitory Concentration, Mixture (Alcaligens faecalis; concentration of the component in SP+PB mixture, SP/PB ratio 5-41): 9.3 ppm | Minimum Inhibitory Concentration, Compound Used Alone (Aureobasidium pullulans; [16]): 15.2 ppm | Minimum Inhibitory Concentration, Mixture (Aureobasidium pullulans; [18]): 5.1 ppm | Minimum Inhibitory Concentration, Compound Used Alone (Pseudomonas rubescens; [16]): 23.7 ppm | Minimum Inhibitory Concentration, Mixture (Pseudomonas rubescens; [19]): 2.5 ppm | Minimum Inhibitory Concentration, Compound Used Alone (Pseudomonas aeruginosa [9]; [16]): 162.6 ppm | Minimum Inhibitory Concentration, Mixture (Pseudomonas aeruginosa [9]; concentration of the component in SP+PB mixture, SP/PB ratio 163-325): 81.3 ppm | Minimum Inhibitory Concentration, Compound Used Alone (Pseudomonas Stutzeri; [16]): 81.3 ppm | Minimum Inhibitory Concentration, Mixture (Pseudomonas Stutzeri; concentration of the component in SP+PB mixture, SP/PB ratio 325-650): 40.6 ppm | Minimum Inhibitory Concentration, Compound Used Alone (Gliocladium virens; [16]): 108.3 ppm | Minimum Inhibitory Concentration, Mixture (Gliocladium virens; concentration of the component in SP+PB mixture, SP/PB ratio 1/10-1): 15.2 ppm | Minimum Inhibitory Concentration, Compound Used Alone (Proteus mirabilis [10]; [16]): 325.1 ppm | Minimum Inhibitory Concentration, Mixture (Proteus mirabilis [10]; concentration of the component in SP+PB mixture, SP/PB ratio 1/20-1): 61.0 ppm | Minimum Inhibitory Concentration, Compound Used Alone (Penicillin pinophilium; [16]): 20.3 ppm | Minimum Inhibitory Concentration, Mixture (Penicillin pinophilium; [18]): 5.1 ppm | Minimum Inhibitory Concentration, Compound Used Alone (Fusarium solani; [16]): 243.8 ppm | Minimum Inhibitory Concentration, Mixture (Fusarium solani; [17]): 40.6 ppm | Minimum Inhibitory Concentration, Compound Used Alone (Pseudomonas fluorescens [1]; Table 3): 128 ppm | Minimum Inhibitory Concentration, Mixture Range (Pseudomonas fluorescens [1]; [11]): ≤1-32 ppm | Minimum Inhibitory Concentration, Compound Used Alone ([2]; Table 3): 32 ppm | Minimum Inhibitory Concentration, Mixture Range [2, 12]: 16-32 ppm | Minimum Inhibitory Concentration, Compound Used Alone (Candida albicans [3]; Table 3): 32 ppm | Minimum Inhibitory Concentration, Mixture Range (Candida albicans [3]; [13]): 1-16 ppm | Minimum Inhibitory Concentration, Compound Used Alone (Pseudomonas aeruginosa [4]; Table 3): 128 ppm | Minimum Inhibitory Concentration, Mixture Range (Pseudomonas aeruginosa [4]; [14]): 32-64 ppm | Minimum Inhibitory Concentration, Compound Used Alone (Proteus mirabilis [5]; Table 3): 512 ppm | Minimum Inhibitory Concentration, Mixture Range (Proteus mirabilis [5]; [15]): 256 ppm

Source: US5696083A, “Personal care composition containing pyrithione and polymyxin” (Olin Corporation, priority 1994, dated 1997)
